Legend:
Bovine trypsin = target: T1, Bovine trypsin (Bos taurus, UniProt P00760); test: Biochemical Assay of Trypsin (T), H-D-CHA-AR-AMC substrate; conditions: 15 μM substrate, 0.025 nM Trypsin; for inhibition at 0.1 µM: compound 0.1 μM; for inhibition at 1 µM: compound 1 μM; for inhibition at 10 µM: compound 10 μM; for kinact/KI: 12-point dose-dependence, time-dependent inhibition, duplicate dilutions, read-out: Kinact/KI^App
T1 construct: purchased Sigma-Aldrich T1426
T1 sequence (P00760 24-246): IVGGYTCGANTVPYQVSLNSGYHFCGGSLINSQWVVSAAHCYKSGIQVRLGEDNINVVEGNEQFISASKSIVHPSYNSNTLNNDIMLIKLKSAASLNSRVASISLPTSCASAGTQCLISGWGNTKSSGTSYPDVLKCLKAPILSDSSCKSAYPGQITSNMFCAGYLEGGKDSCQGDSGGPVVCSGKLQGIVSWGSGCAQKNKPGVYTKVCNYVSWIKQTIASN
Protocol: Bovine trypsin was purchased from Sigma-Aldrich (Cat No. T1426), and 7-amino-4-methylcoumarin (AMC) conjugated peptide H-D-cyclohexylalanine (D-CHA)-AR-AMC was used as the substrate in the assay. The protease activity of trypsin was followed by measuring AMC production by the emission fluorescence intensity of AMC at 460 nm with the excitation at 375 nm, in the same assay buffer as used in the EP assay. The enzyme kinetic characterization studies yielded an average of KM to be 3.9±0.5 μM and the apparent turnover number kcat^app of 33.8±0.4 s^−1 (N=2).
Studies of compound inhibition against T were carried out under the conditions of 15 μM substrate and 0.025 nM Trypsin. Reaction progress curves were collected by reading the FI at 375/460 nm continuously for 1 hour at an interval of 1 minute. Similar to the procedure for Enteropeptidase described above, compounds of formula (I) were screened against Trypsin at 4 different concentrations to obtain the percent of inhibition at 10 μM, 1 μM, 0.1 μM and 0.01 μM, and accurate potencies of selected compounds against Trypsin were derived from detailed 12-point dose-dependence studies for time-dependent inhibitors.
(§1) Representative compounds of the present invention were tested according to the procedures as described in Biological Example 1 and Biological Example 2 above, with results as listed in Table 2 and Table 3, below. Results are reported as the %-inhibition (% Inh) or Kinact/KI value. Variability for the functional assay was typically within 20%. For the column headed Kinact/KI the listed measurement is the result of duplicate dilutions.

[1] = target: T2, Recombinant full-length human EP (Enteropeptidase) (Homo sapiens, UniProt P98073); test: In vitro inhibition potencies against Enteropeptidase (EP), fluorescent peptide GDDDDK-naphthylamine substrate; type: biochemical; conditions: 300 μM substrate, 1.25 nM EP; for inhibition at 0.1 µM: compound 0.1 μM; for inhibition at 1 µM: compound 1 μM; for inhibition at 10 µM: compound 10 μM; for kinact/KI: 12-point dose-dependence, time-dependent inhibition, duplicate dilutions, read-out: kinact/KI^App
T2 construct: Recombinant full-length human EP (PeproTech, Cat #450-48C); purchased PeproTech 450-48C
Protocol: In vitro inhibition potencies against Enteropeptidase (EP) Recombinant full-length human EP (PeproTech, Cat #450-48C) was used in this biochemical assay, with a quenched fluorescent labeled peptide GDDDDK-naphthylamine (NA) (Sigma, Cat #G5261) as the substrate in a buffer of 50 mM Tris-HCl pH 7.4, 200 mM NaCl and 0.01% Triton X-100. The enzyme activity was measured by following the formation of the cleavage product […](NA) by monitoring the fluorescence intensity (FI) at excitation/emission wavelengths of 340/410 nm. The steady-state kinetic characterization studies yielded an average of KM to be 412±22 μM and the apparent turnover number kcat^app of 11.8±0.4 s^−1 (N=2).
Compound inhibition studies were carried out under the conditions of 300 μM substrate and 1.25 nM EP. Reaction progress curves were collected by reading the FI at 340/410 nm continuously for 1 hour at an interval of 1 minute.
To screen compounds of formula (I), inhibition was studied at 4 different compound concentrations of 10 μM, 1 μM, 0.1 μM and 0.01 μM. Initial velocity of the reaction was determined, and percent of inhibition was calculated by comparing to the reaction in the absence of compound.
Accurate measurements of the inhibition potencies of selected compounds were studied in a 12-point dose-dependence fashion. […] Compound potency was measured by determining the inactivation rate constant (kobs) following the reaction change from the initial velocity vi to the steady-state velocity vs at various compound concentrations. The inactivation rate constants (kobs), were derived by fitting the reaction progress curves to eq. 1.
where YT is the detection signal of the reaction at time t, vi and vs are the initial and the steady-state velocities of the reaction, t is the reaction time. Y0 is the background signal (when t=0).
Compound binding mechanism was shown by plotting kobs˜[compound]. Hyperbolic fitting to eq. 2
conforms to a two-step binding mechanism as shown in Scheme BIO-1.
The plateau of the curve is the forward step rate constant of the isomerization step k3, KI^app is the inhibitor concentration that leads to half-maximal rate of inhibition of enzyme under the assay conditions. Compound inhibition potency was reported by the value of k3/KI^app.
A linear dependence of eq.3
indicates a one-step binding mechanism as shown in Scheme BIO-2
Slope of the linear fit gives the second-order rate constant of the compound binding k1, which is used to represent the compound inhibition potency.
as §1

T2 sequence (P98073 whole entry): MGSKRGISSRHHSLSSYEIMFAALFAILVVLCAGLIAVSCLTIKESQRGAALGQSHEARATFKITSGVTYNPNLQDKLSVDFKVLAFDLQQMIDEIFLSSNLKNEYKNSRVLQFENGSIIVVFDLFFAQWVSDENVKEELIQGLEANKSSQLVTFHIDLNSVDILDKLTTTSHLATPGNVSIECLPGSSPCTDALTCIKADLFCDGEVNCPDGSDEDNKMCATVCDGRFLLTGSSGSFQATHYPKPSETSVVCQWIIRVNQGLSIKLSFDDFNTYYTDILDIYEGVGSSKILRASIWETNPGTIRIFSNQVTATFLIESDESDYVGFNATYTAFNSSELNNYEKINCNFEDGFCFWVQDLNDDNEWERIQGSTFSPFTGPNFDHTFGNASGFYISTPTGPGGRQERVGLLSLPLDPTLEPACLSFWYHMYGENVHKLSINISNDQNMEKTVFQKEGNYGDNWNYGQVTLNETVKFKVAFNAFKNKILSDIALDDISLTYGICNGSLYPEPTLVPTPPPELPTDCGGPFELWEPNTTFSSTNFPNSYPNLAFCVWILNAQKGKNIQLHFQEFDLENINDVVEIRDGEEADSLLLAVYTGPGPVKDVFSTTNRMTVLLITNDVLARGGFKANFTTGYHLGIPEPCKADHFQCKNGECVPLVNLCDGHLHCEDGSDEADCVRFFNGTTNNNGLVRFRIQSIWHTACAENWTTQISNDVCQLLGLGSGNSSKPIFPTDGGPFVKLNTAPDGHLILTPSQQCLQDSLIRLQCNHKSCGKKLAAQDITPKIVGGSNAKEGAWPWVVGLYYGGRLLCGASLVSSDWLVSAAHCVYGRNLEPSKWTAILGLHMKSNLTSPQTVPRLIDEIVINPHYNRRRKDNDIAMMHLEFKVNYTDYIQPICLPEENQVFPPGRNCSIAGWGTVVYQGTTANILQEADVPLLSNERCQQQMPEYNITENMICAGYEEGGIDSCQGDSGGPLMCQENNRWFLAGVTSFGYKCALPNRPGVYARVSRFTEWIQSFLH

inhibition at 0.1 µM (Bovine trypsin)	inhibition at 1 µM (Bovine trypsin)	inhibition at 10 µM (Bovine trypsin)	inhibition at 0.1 µM [1]	inhibition at 1 µM [1]	inhibition at 10 µM [1]	kinact/KI (Bovine trypsin)	kinact/KI [1]	Compound
10.9%	58.3%	93%	10.5%	57.9%	93.2%			N=C1NCCN1c1ccc(C(=O)Oc2ccc(CC(=O)O)n3ncnc23)cc1 [Compound 32, 2-(8-(4-(2-iminoimidazolidin-1-yl)benzoyloxy)-[1,2,4]triazolo[1,5-a]pyridin-5-yl)acetic acid]
5.7%	8.7%	66.5%	-0.8%	11.3%	52.3%			CNC(=N)c1ccc(C(=O)Oc2ccc(CC(=O)O)n3ncnc23)cc1 [Compound 33, 2-(8-(4-(N-methylcarbamimidoyl)benzoyloxy)-[1,2,4]triazolo[1,5-a]pyridin-5-yl)acetic acid]
9.6%	57.1%	97.7%	15.3%	80.1%	97.9%			CNC(=N)Nc1ccc(C(=O)Oc2ccc(CC(=O)O)n3ncnc23)cc1 [Compound 34, 2-(8-(4-(3-methylguanidino)benzoyloxy)-[1,2,4]triazolo[1,5-a]pyridin-5-yl)acetic acid]
31.4%	89.2%	98.9%	40.5%	93.8%	99.3%			CN(C(=N)N)c1ccc(C(=O)Oc2ccc(CC(=O)O)n3ncnc23)cc1 [Compound 35, 2-(8-(4-(1-methylguanidino)benzoyloxy)-[1,2,4]triazolo[1,5-a]pyridin-5-yl)acetic acid]
-3.1%	-3.3%	18.2%	2.4%	9.1%	34%			CONC(=N)c1ccc(C(=O)Oc2ccc(CC(=O)O)n3ncnc23)cc1 [Compound 36, 2-(8-(4-(N-methoxycarbamimidoyl)benzoyloxy)-[1,2,4]triazolo[1,5-a]pyridin-5-yl)acetic acid]
11.5%	68%	99.7%	47.8%	99.6%	100%			CC(=N)Nc1ccc(C(=O)Oc2ccc(CC(=O)O)n3ncnc23)cc1 [Compound 37, 2-(8-(4-acetimidamidobenzoyloxy)-[1,2,4]triazolo[1,5-a]pyridin-5-yl)acetic acid]
-2.1%	2.5%	35.8%	-1.6%	1.9%	13.6%			N#CNC(=N)c1ccc(C(=O)Oc2ccc(CC(=O)O)n3ncnc23)cc1 [Compound 38, 2-(8-(4-(N-cyanocarbamimidoyl)benzoyloxy)-[1,2,4]triazolo[1,5-a]pyridin-5-yl)acetic acid]
1.6%	2.8%	25.5%	0.5%	12.2%	51.8%			N=C(NN)c1ccc(C(=O)Oc2ccc(CC(=O)O)n3ncnc23)cc1 [Compound 39, 2-(8-(4-(hydrazinyl(imino)methyl)benzoyloxy)-[1,2,4]triazolo[1,5-a]pyridin-5-yl)acetic acid]
-8%	-0.4%	10.1%	-10.7%	-10.1%	-10.8%			C/C(=N\O)Nc1ccc(C(=O)Oc2ccc(CC(=O)O)n3ncnc23)cc1 [Compound 40, (E)-2-(8-(4-(N′-hydroxyacetimidamido)benzoyloxy)-[1,2,4]triazolo[1,5-a]pyridin-5-yl)acetic acid]
52.9%	99.6%	100%	62.3%	98.5%	99.8%	59400 M⁻¹ s⁻¹	52800 M⁻¹ s⁻¹	C#CCOCCOCC#Cc1cc(NC(=N)N)ccc1C(=O)Oc1ccc(CC(=O)O)n2ncnc12 [Compound 42, 2-(8-((4-guanidino-2-(3-(2-(prop-2-yn-1-yloxy)ethoxy)prop-1-yn-1-yl)benzoyl)oxy)-[1,2,4]triazolo[1,5-a]pyridin-5-yl)acetic acid]
76.1%	99.5%	100%	56.5%	99.9%	99.9%	40100 M⁻¹ s⁻¹	12300 M⁻¹ s⁻¹	C#CCOCC#Cc1cc(NC(=N)N)ccc1C(=O)Oc1ccc(CC(=O)O)n2ncnc12 [Compound 43, 2-(8-((4-Guanidino-2-(3-(prop-2-yn-1-yloxy)prop-1-yn-1-yl)benzoyl)oxy)-[1,2,4]triazolo[1,5-a]pyridin-5-yl)acetic acid]
